In patent US10233188B2, “CDK2/4/6 inhibitors” (priority 2016, dated 2019):

Legend:
CDK2/Cyclin E1 = CDK2/Cyclin E1 (Homo sapiens (Human), UniProt P24941); assay: biochemical; settings: CDK2_Ki (nM), phosphorylated CDK2/Cyclin E1, 150 μM ATP, Morrison tight-binding fit
Method: The assay was initiated with the addition of ATP, following a fifteen minutes pre-incubation of enzyme and inhibitor at room temperature in the reaction mixture. The reaction was stopped after 45 minutes at room temperature by the addition of 50 μL of 80 mM EDTA, pH 7.5.

CDK6/Cyclin D1 = CDK6/Cyclin D1 (Homo sapiens (Human), UniProt Q00534); assay: biochemical; settings: CDK6_Ki (nM), non-phosphorylated CDK6/Cyclin D1, 2 mM ATP, Morrison fit
CDK6/Cyclin D1, sequence (Q00534 whole entry): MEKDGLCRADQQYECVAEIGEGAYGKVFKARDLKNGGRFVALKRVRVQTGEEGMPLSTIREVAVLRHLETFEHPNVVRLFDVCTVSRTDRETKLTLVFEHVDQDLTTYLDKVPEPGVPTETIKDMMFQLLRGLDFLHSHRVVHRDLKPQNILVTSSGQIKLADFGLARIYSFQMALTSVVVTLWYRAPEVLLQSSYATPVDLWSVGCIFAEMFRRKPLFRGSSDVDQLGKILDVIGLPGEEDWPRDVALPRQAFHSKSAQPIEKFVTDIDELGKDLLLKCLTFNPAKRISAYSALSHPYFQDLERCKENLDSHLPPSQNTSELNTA
CDK6/Cyclin D1, sequence (P24385 whole entry partner): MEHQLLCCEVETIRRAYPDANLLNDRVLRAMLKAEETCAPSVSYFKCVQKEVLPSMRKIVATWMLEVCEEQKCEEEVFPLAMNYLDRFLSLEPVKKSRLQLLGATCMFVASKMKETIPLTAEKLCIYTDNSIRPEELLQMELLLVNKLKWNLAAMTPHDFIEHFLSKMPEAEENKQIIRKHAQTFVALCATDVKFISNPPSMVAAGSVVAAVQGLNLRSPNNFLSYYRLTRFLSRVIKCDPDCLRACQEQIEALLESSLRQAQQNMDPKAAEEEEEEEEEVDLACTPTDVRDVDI

SMILES | Ki (CDK2/Cyclin E1) [nM] | Ki (CDK6/Cyclin D1) [nM]
C[C@@]1(O)CCC[C@H]1n1c(=O)ccc2cnc(NC3CCN(S(=O)(=O)c4nccs4)CC3)nc21 (single isomer, unassigned) [Example 78, (−)-8-[(1R*,2R*)-2-hydroxy-2-methylcyclopentyl]-2-{[1-(1,3-thiazol-2-ylsulfonyl)piperidin-4-yl]amino}pyrido[2,3-d]pyrimidin-7(8H)-one] | 0.25 | 1.63
C[C@]1(O)CCC[C@@H]1n1c(=O)c(C(F)F)cc2cnc(NC3CCN(S(N)(=O)=O)CC3)nc21 (single isomer, unassigned) [Example 188, (+)-4-({6-(difluoromethyl)-8-[(1R*,2R*)-2-hydroxy-2-methylcyclopentyl]-7-oxo-7,8-dihydropyrido[2,3-d]pyrimidin-2-yl}amino)piperidine-1-sulfonamide] | 0.7 | 2.4
Cc1cc2cnc(NC3CCN(S(=O)(=O)NC4CCOCC4)CC3)nc2n([C@H]2CCC[C@]2(C)O)c1=O (single isomer, unassigned) [Example 97, (+)-4-({8-[(1R*,2R*)-2-hydroxy-2-methylcyclopentyl]-6-methyl-7-oxo-7,8-dihydropyrido[2,3-d]pyrimidin-2-yl}amino)-N-(tetrahydro-2H-pyran-4-yl)piperidine-1-sulfonamide] | 2.47 | 11.8
Cc1cc2cnc(NC3CCN(S(=O)(=O)C4CC4)CC3)nc2n([C@H]2CCC[C@]2(C)O)c1=O (single isomer, unassigned) [Example 113, (+)-2-{[1-(cyclopropylsulfonyl)piperidin-4-yl]amino}-8-[(1R*,2R*)-2-hydroxy-2-methylcyclopentyl]-6-methylpyrido[2,3-d]pyrimidin-7(8H)-one] | 1.99 | 4.15
C[C@@]1(O)CCC[C@H]1n1c(=O)ccc2cnc(NC3CCN(S(=O)(=O)NC4CCOCC4)CC3)nc21 (single isomer, unassigned) [Example 68, (−)-4-({8-[(1R*,2R*)-2-hydroxy-2-methylcyclopentyl]-7-oxo-7,8-dihydropyrido[2,3-d]pyrimidin-2-yl}amino)-N-(tetrahydro-2H-pyran-4-yl)piperidine-1-sulfonamide] | 0.41 | 3.23
CS(=O)(=O)N1CCC(Nc2ncc3cc(CC(N)=O)c(=O)n([C@H]4CCC[C@H](O)C4)c3n2)CC1 (single isomer, unassigned) [Example 214, (−)-2-(8-[(1R*,2R*)-3-hydroxycyclohexyl]-2-{[1-(methylsulfonyl)piperidin-4-yl]amino}-7-oxo-7,8-dihydropyrido[2,3-d]pyrimidin-6-yl)acetamide] | 27.8 | 83.3
C[C@]1(O)CCC[C@@H]1n1c(=O)c(Cl)cc2cnc(NC3CCN(S(N)(=O)=O)CC3)nc21 (single isomer, unassigned) [Example 129, (+)-4-({6-chloro-8-[(1R*,2R*)-2-hydroxy-2-methylcyclopentyl]-7-oxo-7,8-dihydropyrido[2,3-d]pyrimidin-2-yl}amino)piperidine-1-sulfonamide] | 1.47 | 5.73
C[C@@]1(O)CCC[C@H]1n1c(=O)c(C(F)F)cc2cnc(NC3CCN(S(N)(=O)=O)CC3)nc21 (single isomer, unassigned) [Example 187, (−)-4-({6-(difluoromethyl)-8-[(1R*,2R*)-2-hydroxy-2-methylcyclopentyl]-7-oxo-7,8-dihydropyrido[2,3-d]pyrimidin-2-yl}amino)piperidine-1-sulfonamide] | 0.08 | 0.29
C[C@@]1(O)CCC[C@H]1n1c(=O)ccc2cnc(NC3CCN(S(=O)(=O)CS(C)(=O)=O)CC3)nc21 [Example 190, 8-[(1R,2R)-2-hydroxy-2-methylcyclopentyl]-2-[(1-{[(methylsulfonyl)methyl]sulfonyl}piperidin-4-yl)amino]pyrido[2,3-d] pyrimidin-7(8H)-one] | 0.51 | 184
